Experimental data published in US12246025B2, “Methods of treating cancer with a combination of a platinum-based agent and an anti-tissue factor antibody-drug conjugate” (priority 2018, dated 2025).

Key:
[1] = test system: HuPrime® cervical xenograft model CV1248 [R4P5]; assay: Anti-tumor efficacy of tisotumab vedotin with cisplatin in cervical cancer PDX mouse model; assay type: in vivo, BALB/c nude mice; settings: alone, tisotumab vedotin 2 mg/kg and 4 mg/kg, cisplatin 4 mg/kg; for tumor growth: FIG. 1A-C; for survival: tumor size cut-off 1000 mm^3, FIGS. 1D and 1E
Method: The in vivo anti-tumor efficacy of tisotumab vedotin in combination with cisplatin was evaluated in a patient-derived xenograft (PDX) mouse model in BALB/c nude mice (Crown Bioscience Inc.). Xenografts were derived from tumor specimens from cancer patients. Establishment and characterization of the PDX model was performed following primary implantation into nude mice. Tumor xenografts were passaged approximately three to five times until establishment of stable growth patterns. Tumor fragments were obtained from xenografts in serial passage in nude mice. Tumors were cut into fragments of 2-3 mm diameter and placed in phosphate-buffered saline (PBS) until subcutaneous implantation. A cervical cancer PDX model (HuPrime® cervical xenograft model CV1248 [R4P5]; Crown Bioscience Inc.) was used in this experiment. Tumor size was determined by caliper measurement at least two times a week and tumor volume was calculated as 0.5×length×width^2. When tumors reached the volume of 200 mm^3, mice were randomized in 11 groups (7-8 mice per treatment group). Mice were treated with the following by intravenous injections: 1) tisotumab vedotin alone at a dose level of 0.5 mg/kg, 1 mg/kg, 2 mg/kg or 4 mg/kg provided on day 0 and day 7 of treatment; 2) cisplatin alone at a dose of 4 mg/kg provided on day 0, day 7 and day 14 of treatment; 3) tisotumab vedotin at a dose level of 0.5 mg/kg, 1 mg/kg, 2 mg/kg or 4 mg/kg provided on day 0 and day 7 of treatment in combination with cisplatin at a dose of 4 mg/kg provided on day 0, day 7 and day 14 of treatment; 4) IgG1 isotype control at a dose of 4 mg/kg provided on day 0 and day 7 of treatment; or 5) IgG1-MMAE control at a dose of 4 mg/kg provided on day 0 and day 7 of treatment. […] Mice were housed in individually ventilated (IVC) cages, four or five mice per cage and identified by ear tags.
To determine whether there were statistically significant differences between tumor volumes in control and treatment groups, tumor volumes in the treatment groups were compared with those in the control group (e.g., treatment groups vs IgG1-MMAE control) using Mann-Whitney analysis at the last day that all groups were intact, i.e., day 38. For survival analysis (tumor volume cut-off was 1,000 mm^3). Mantel-Cox analysis was performed on Kaplan-Meier plots with a cut-off set at tumor volume >1,000 mm^3.

[2] = test system: bladder xenograft model BXF1036; assay: Anti-tumor efficacy of tisotumab vedotin with cisplatin in bladder cancer PDX mouse model; assay type: in vivo, Crl:NMRI-Foxn1^nu nude mice; settings: alone; for tumor growth: tisotumab vedotin 0.5 mg/kg, cisplatin 2 mg/kg, FIG. 2A-C; for survival: tumor size cut-off 500 mm^3, FIG. 2D
Method: The in vivo anti-tumor efficacy of tisotumab vedotin in combination with cisplatin was evaluated in a PDX mouse model in female Crl:NMRI-Foxn1^nu (Envigo RMS SARL, France) nude mice (Charles River Discovery Research Services). Xenografts were derived from tumor specimens from cancer patients. Establishment and characterization of the PDX model was performed following primary implantation into nude mice. Tumor xenografts were passaged approximately three to five times until establishment of stable growth patterns. Tumor fragments were obtained from xenografts in serial passage in nude mice. Tumors were cut into fragments of 3-4 mm diameter and placed in phosphate-buffered saline (PBS) until subcutaneous implantation. A bladder cancer PDX model (bladder xenograft model BXF1036; Charles River Discovery Research Services) was used in this experiment. Tumor size was determined by caliper measurement at least two times a week and tumor volume was calculated as 0.52×length×[…]. When tumors reached the volume of 50-250 mm^3, mice were randomized in 5 groups (10 mice per treatment group). Mice were treated with the following: 1) tisotumab vedotin alone at a dose level of 0.5 mg/kg provided on day 1 of treatment; 2) cisplatin alone at a dose of 2 mg/kg provided on day 1 and day 8 of treatment; 3) tisotumab vedotin at a dose level of 0.5 mg/kg provided on day 1 of treatment in combination with cisplatin at a dose of 2 mg/kg provided on day 1 and day 8 of treatment; 4) IgG1 isotype control at a dose of 0.5 mg/kg provided on day 1 of treatment; or 5) IgG1-MMAE control at a dose of 0.5 mg/kg provided on day 1 of treatment. IgG1 isotype control, IgG1-MMAE control and tisotumab vedotin were each in PBS and injected intravenously. Cisplatin was in 0.9% NaCl and injected subcutaneously. […] Mice were housed in individually ventilated (IVC) cages, with a maximum of five mice per cage, and identified by ear tags.
To determine whether there were statistically significant differences between tumor volumes in control and treatment groups, tumor volumes in the treatment groups were compared with those in the control groups (e.g., IgG1-MMAE control, tisotumab vedotin alone or cisplatin alone) using Mann-Whitney analysis at the last day that all groups were intact, i.e., day 25. Statistical analysis of the difference between groups treated with tisotumab vedotin in combination with cisplatin and groups treated with either tisotumab vedotin alone or cisplatin alone was performed on day 32.
Tumor progression was plotted in a Kaplan-Meier plot, with a cut-off set at a tumor volume >500 mm^3. […]

[3] = test system: HuPrime® cervical xenograft model CV1248 [P3]; assay: Anti-tumor efficacy of tisotumab vedotin with carboplatin in cervical cancer PDX mouse model; assay type: in vivo, BALB/c nude mice; settings: alone; tisotumab vedotin 2 mg/kg, carboplatin 40 or 80 mg/kg; FIGS. 3A and 3B
Method: The in vivo anti-tumor efficacy of tisotumab vedotin in combination with carboplatin was evaluated in a patient-derived xenograft (PDX) mouse model in female BALB/c nude mice (Crown Bioscience [Taicang] Inc.). Xenografts were derived from tumor specimens from cancer patients. Tumor fragments were obtained from xenografts in serial passage in nude mice. Tumors were cut into fragments of 2-4 mm diameter and placed in phosphate-buffered saline (PBS) until subcutaneous implantation. A cervical cancer PDX model (HuPrime® cervical xenograft model CV1248 [P3]; Crown Bioscience Inc.) was used in this experiment. Tumor size was determined by caliper measurement at least two times a week and tumor volume was calculated as 0.5×length× width^2. When tumors reached an average volume of 150 mm^3, mice were randomized in 7 groups (10 mice per treatment group). The day of randomization was designated day 0. Mice were treated with the following by intravenous injections: 1) tisotumab vedotin alone at a dose level of 2 mg/kg, provided on day 0, day 7 and day 14; 2) carboplatin (Selleck Chemicals, cat. no. […]

[4] = test system: relapsed, recurrent, and/or metastatic cervical cancer; settings: cited from earlier work

Compound | tumor growth [1] | survival [1] | tumor growth [2] | survival [2] | tumor growth [3] | efficacy ([4]; 2.0 mg/kg) | safety profile ([4]; 2.0 mg/kg) | grade of reported peripheral neuropathy cases ([4]; in vivo) | Epistaxis (bleeding AE) ([4]; nearly all of the cases are grade 1) | subjects with peripheral neuropathy ([4]; subjects who received treatment with tisotumab vedotin)
Tisotumab vedotin: antibody-drug conjugate comprising an antibody that binds to tissue factor (TF), a protease-cleavable linker, and the microtubule disrupting agent MMAE | efficiently inhibited tumor growth | prolonged survival | efficiently inhibited tumor growth | prolonged survival | efficiently inhibited tumor growth | robust efficacy | manageable safety profile | majority of the reported cases are grade 1-2 | most common reported AE | approximately 35%
N.N.[Cl][Pt][Cl] [Cisplatin, reference compound] | inhibited tumor growth | prolonged survival | inhibited tumor growth | prolonged survival | – | – | – | – | – | –
N.N.O=C([O-])C1(C(=O)[O-])CCC1.[Pt+2] [Carboplatin, reference compound] | – | – | – | – | did not inhibit tumor growth | – | – | – | – | –
